What was measured:
[1] = Thermal Mechanical Analysis (TMA); assay type: physicochemical; settings: heating rate 10° C./min, 30-160° C.
Method: The method involves compressing 140 mg of material in a punch and die (3 mm) to 2 KN. The compressed pellet was then placed on the TMA and the 1.1 mm probe placed on the top face. A heating rate of 10° C./min was used and the sample was heated from 30-160° C.

[2] = Differential Scanning Calorimetry (DSC); assay type: physicochemical; settings: dry amorphous lisinopril
Method: Differential Scanning Calorimetry (DSC) was performed on approximately 0.5-3 mg sample, using a Mettler DSC820 instrument, according to standard methods, for example those described in Höhne et al. (1996) Differential scanning Calorimetry, Springer, Berlin.

[3] = Dynamic vapour sorption (DVS) stability test; assay type: physicochemical; settings: first sorption process (Cycle 1 Sorp), FIG. 3
[4] = cited from earlier work
[5] = Solubility in toluene (antisolvent); assay type: physicochemical
Method: When the volume was reduced to 100-150 ml, another portion of toluene was added and the procedure repeated.

| glass transition temperature [1] [°C] | glass transition temperature (Tg) [2] [°C] | solubility in toluene [5] | Compound | physical stability to water-induced crystallisation (DVS) [3] | effective half-life of accumulation ([4]; multiple dosing) | time to peak serum concentrations ([4]; oral administration) [h] |
| --- | --- | --- | --- | --- | --- | --- |
| 129 | 125 |  | NCCCC[C@H](NC(CCc1ccccc1)C(=O)O)C(=O)N1CCC[C@H]1C(=O)O (stereo partly drawn) [amorphous lisinopril, (S)-1-[N^2-(1-carboxy-3-phenylpropyl]-L-lysyl]-L-proline] | no expulsion of absorbed water due to recrystallisation was observed |  |  |
|  |  | insoluble | NCCCC[C@H](NC(CCc1ccccc1)C(=O)O)C(=O)N1CCC[C@H]1C(=O)O (stereo partly drawn) [lisinopril, (S)-1-[N^2-(1-carboxy-3-phenylpropyl]-L-lysyl]-L-proline] |  | about 12.6 hours | ≤ 7 |

Reference: patent US6462174B1, “Amorphous compound” (AstraZeneca AB, priority 2001, dated 2002)
